The values that follow come from US11298346B2, “Methods for treatment of fibrotic diseases” (Beta Cat Pharmaceuticals, Inc., priority 2017, dated 2022).

Several values for one entry are separate records, joined by “and”; a condition that tells them apart may be missing. Equal entries are not always repeated.

The test system of data set [1] is bleomycin-induced idiopathic pulmonary fibrosis (IPF). Put plainly: Nebulized tegavivint nanosuspension in mouse model of bleomycin-induced idiopathic pulmonary fibrosis. The data set is classed as in vivo, C57BL/6 male mice. On the procedure:
The purpose of this experiment was to investigate tegavivint nanosuspension in a mouse model of bleomycin-induced idiopathic pulmonary fibrosis (IPF). Test articles 10 were as follows:
Tegavivint (BC2059) in a nano-milled suspension 25 mg/mL in 0.625% poloxamer 188 and 10% sorbitol. The compound was refrigerated at about 4° C.
Nebulizing equipment was Altera ultrasonic eRapid machine nebulizer (model #678G1002).
Animals were 8-12 week old C57BL/6 male mice (Jackson Lab, Bar Harbor, Me.).
Murine model of pulmonary fibrosis was induced by intratracheally (IT) injected bleomycin (APP Pharmaceuticals, Schaumburg, Ill.). One dose of 0.025 U bleomycin dissolved in 50 microliters of Saline 0.9%, or PBS as control was administered to each animal on day 0.
Tegavivint nanosuspension was applied to Group 3 in the form of aerosols, through the method of whole body exposure. The mice were placed inside a plastic box. This box was sealed and connected by one of its sides to the outlet of the nebulizer device, and on the other side to a system of closed water. The whole procedure was carried out inside the fume hood of the animal room. In each treatment session, 5 ml of 25 mg/ml Tegavivint (125 mg) was nebulized over 15 min to each group of 4-5 mice in the chamber. To increase exposure of the mice to the aerosol, Tegavivint that precipitated in the aerosol chamber was collected with a syringe and re-nebulized a second and a third time. Mice were nebulized twice a day between day 5 and day 21 after administration of bleomycin. Group 1 and 2 received nebulized vehicle 5 ml in the same manner.
The body weight of animals was recorded on Days 0, 5, 8, 12, 16, 19, and 21.
Measurements of lung mechanics were performed on Day 21 as previously described (Morales-Nebreda L, et al. AJRCMB 2015) on Day 21 using a FlexiVent mouse ventilator (Scireq, Montreal, PQ, Canada) according to the protocols established by Scireq. A standard ventilation history for each mouse was obtained with three total lung capacity maneuvers before the forced oscillation and quasistatic pressure-volume curve protocols that were used to calculate airway resistance, dynamic and quasistatic tissue compliance, and elastance.
On Day 21 all animals were sacrificed and lungs were harvested. Total lung collagen content was evaluated using the Hydroxyproline Assay as previously described (Morales-Nebreda L, et al. AJRCMB 2015). In brief, mouse lungs were harvested and suspended in 1 ml of 0.5 M acetic acid and then homogenized, first with a tissue homogenizer (60 s on ice) and then using 15 strokes in a Dounce homogenizer (on ice). The resulting homogenate was spun (12,000×g) for 10 minutes, and the supernatant was used for subsequent analyses. Collagen standards were prepared in 0.5 M acetic acid using rat tail collagen (Sigma-Aldrich, St. Louis, Mo.). Picrosirius red dye was prepared by mixing 0.2 g of Sirius red F3B (Sigma-Aldrich) with 200 ml of […]; 1 ml of the Picrosirius red dye was added to 100 μl of the collagen standard or the lung homogenates and then mixed continuously at room temperature on an orbital shaker for 30 minutes. The precipitated collagen was then pelleted and washed once with 0.5 M acetic acid (12,000×g for 15 min each). The resulting pellet was resuspended in 1 ml of 0.5 M NaOH and Sirius red staining was quantified spectrophotometrically (540 nm) using a colorimetric plate reader (Bio-Rad, Hercules, Calif.).

Data set [2] has as its system bleomycin-induced pulmonary fibrosis. Put plainly: Bleomycin-induced pulmonary fibrosis mouse model, intravenous Tegavivint. The following applies: 50 mg/kg biw tail-vein injection. It is filed as in vivo, C57BL/6 wild-type mice. On the procedure:
In a pilot study, Tegavivint at 50 mg/kg was administered biw (twice a week) via tail-vein injection to C57BL/6 wild-type mice. Bleomycin was administered to the mice intratracheally on day 0 to induce pulmonary fibrosis, and Tegavivint or the vehicle (5% dextrose in water) was administered on days 6, 10, 14, 18 and 21. The purpose of this experiment was to evaluate the effect of systemically-administered Tegavivint on bleomycin-induced pulmonary fibrosis in vivo.

Data set [3] is described as follows: Lung concentration after nebulizing delivery of Tegavivint formulations (whole body exposure). The data set is classed as in vivo, bcat-Ex3 mice. The following applies: mouse lung, individual animals, listed as BC2059. On the procedure: Tegavivint particles suspended in Poloxamer 188/sorbitol at a concentration of 25 mg/mL were used. These formulations were applied to the mice in the form of aerosols, through the method of whole body exposure. The mice were placed inside a plastic box. This box was sealed and connected by one of its sides to the outlet of the nebulizer device, and on the other side to a system of closed water. The whole procedure was carried out inside the fume hood of the animal room.
For the first experiment, the nebulizer kit of SATER LABS was used. This device uses the jet system. The device was primed with 5 ml of the drug, i.e. 125 mg of tegavivint (BC2059), for each group of 5 mice, and then the device was connected to the power source for nebulization. The energy was supplied by a DeVilbiss compressor model 646, which allows 5-7 pounds of pressure, and a flow of 6-8 liters per minute. For the second experiment, the device used was the Altera, ultrasonic nebulizer.
For the two experiments, 10 male bcat-Ex3 mice were used for each set. These mice were separated into 2 groups of 5 mice each. The first group received the drug daily, for 5 consecutive days. The second group received the drug only once (the fifth day). On day 5 all mice were sacrificed, lung harvested, and samples were stored at −30 degrees, in two labeled nylon bags, each containing the 5 samples from each group.

Setting [4] is: Group 3, inhaled tegavivint after bleomycin injury.
The mark [5] stands for this setting: Group 3: IT bleomycin Day 0, 5 ml of 25 mg/ml tegavivint aerosol BID Day 5-21, Day 21, individual animals.
The mark [6] stands for this setting: Tegavivint alone (no bleomycin).
[7] abbreviates: Aerosol jet nebulizer (Sater Labs), 1 day (single-dose on Day 5).
The mark [8] stands for this setting: Aerosol jet nebulizer (Sater Labs), 5 day (5 daily doses on Days 1-5).
[9] abbreviates: Nebulizer ultrasonic eRapid (Altera), 1 day (single-dose on Day 5).
Setting [10] is: Nebulizer ultrasonic eRapid (Altera), 5 day (5 daily doses on Days 1-5).

With Tegavivint, in data set [1] (Group 3, inhaled tegavivint), the “body weight loss caused by bleomycin induced lung injury” value is “reversed the body weight loss”. Also, in data set [1] (setting [4]), the lung compliance entry is on record as “reversed the compliance values to near those of the sham-treated controls”; the “total lung collagen content (Hydroxyproline assay)” value was “reversed this change and the collagen levels are closed to sham-treated controls”. Further, in data set [1] (setting [5]), the “Compliance (ml/cm H20)” value is 0.05515 ml/cm H20 and 0.05604 ml/cm H20 and 0.06762 ml/cm H20 and 0.0543 ml/cm H20 and 0.0561 ml/cm H20; the “Hydroxyproline (μg/half lung)” value is 70.016 μg/half lung and 39.44 μg/half lung and 45.68 μg/half lung and 58.784 μg/half lung and 64.296 μg/half lung. Further, the “Change in body weight (%)” value in data set [1] (Group 3: IT bleomycin Day 0, 5 ml of 25 mg/ml tegavivint aerosol BID Day 5-21, individual animals) was −2.83% and 5.2% and 7.3% (2×) and 7.9%. In data set [2] (Tegavivint after bleomycin), the pulmonary compliance result is given as “partially restored” and the “total soluble collagen content in lung tissue (Sircol assay)” value is recorded as “completely restored the collagen level to the same as vehicle-only controls”. Further, in data set [2] (setting [6]), the pulmonary compliance entry is “no effect” and the “total soluble collagen content in lung tissue (Sircol assay)” value is “no effect”. Also, in data set [3] (setting [7]), the “Lung Concentration (ng/g)” value is 5040 ng/g and 16800 ng/g and 56800 ng/g and 5200 ng/g and 17100 ng/g; the “Lung Concentration (ng/mL)” value is 1260 ng/mL and 4190 ng/mL and 14200 ng/mL and 1300 ng/mL and 4270 ng/mL. In data set [3] (setting [8]), the “Lung Concentration (ng/g)” value was 18600 ng/g and 6600 ng/g and 14500 ng/g and 12300 ng/g and 14200 ng/g; the “Lung Concentration (ng/mL)” value is 4640 ng/mL and 1650 ng/mL and 3620 ng/mL and 3080 ng/mL and 3550 ng/mL. In data set [3] (setting [9]), the “Lung Concentration (ng/g)” value is 11400 ng/g and 11600 ng/g and 34600 ng/g and 15100 ng/g and 2400 ng/g; the “Lung Concentration (ng/mL)” value was 2840 ng/mL and 2910 ng/mL and 8660 ng/mL and 3780 ng/mL and 601 ng/mL. Further, in data set [3] (setting [10]), the “Lung Concentration (ng/g)” value was 19100 ng/g and 17200 ng/g and 18800 ng/g and 12200 ng/g and 22900 ng/g; the “Lung Concentration (ng/mL)” value is 4770 ng/mL and 4290 ng/mL and 4690 ng/mL and 3040 ng/mL and 5730 ng/mL.
